Laboratory results taken from ChEMBL document CHEMBL4673263, “Evaluation of PNU-159682 antibody drug conjugates (ADCs)” (Bioorg Med Chem Lett, 2020).

How the values were obtained:
[1] = system: HEK-293T; test: Cytotoxicity against HEK293T cells assessed as reduction in cell viability; type: cell-based; conditions: Homo sapiens
[2] = system: MES-SA; test: Cytotoxicity against human MES-SA cells assessed as reduction in cell viability; type: functional, cell-based
[3] = system: MES-SA/Dx5; test: Cytotoxicity against human MES SA/DX5 cells assessed as reduction in cell viability; type: functional, cell-based
[4] = Stability of compound in mouse plasma incubated for 7 days; type: ADME, cell-free; conditions: 168 h, time 7 day
[5] = Stability of the compound in rat plasma incubated for 7 days; type: ADME, cell-free; conditions: 168 h, time 7 day

| SMILES | EC50 [1] | EC50 [2] | EC50 [3] | Stabilty [4] | Stabilty [5] |
| --- | --- | --- | --- | --- | --- |
| COc1cccc2c1C(=O)c1c(O)c3c(c(O)c1C2=O)C[C@@](O)(c1csc(N(C)C)n1)C[C@@H]3O[C@H]1C[C@H]2[C@H](O[C@@H]3[C@@H](OC)OCCN32)[C@H](C)O1 | 0.065 nM | 0.07 nM | 0.113 nM |  |  |
| COc1cccc2c1C(=O)c1c(O)c3c(c(O)c1C2=O)C[C@@](O)(c1csc(N(C)C(=O)[C@H](C)NC(=O)[C@@H](NC(=O)CN2C(=O)C=CC2=O)C(C)C)n1)C[C@@H]3O[C@H]1C[C@H]2[C@H](OC3[C@@H](OC)OCCN32)[C@H](C)O1 (stereo partly specified) |  |  |  | Stable | Stable |
| COc1cccc2c1C(=O)c1c(O)c3c(c(O)c1C2=O)C[C@@](O)(C(=O)CO)C[C@@H]3O[C@H]1C[C@H]2[C@H](O[C@@H]3[C@@H](OC)OCCN32)[C@H](C)O1 | 0.00037 nM | 0.0002 nM | 0.00038 nM |  |  |
| COc1cccc2c1C(=O)c1c(O)c3c(c(O)c1C2=O)C[C@@](O)(c1nnc(C)[nH]1)C[C@@H]3O[C@H]1C[C@H]2[C@H](O[C@@H]3[C@@H](OC)OCCN32)[C@H](C)O1 | 0.033 nM | 0.034 nM | > 15 nM |  |  |
| CNc1nc([C@]2(O)Cc3c(O)c4c(c(O)c3[C@@H](O[C@H]3C[C@H]5[C@H](O[C@@H]6[C@@H](OC)OCCN65)[C@H](C)O3)C2)C(=O)c2c(OC)cccc2C4=O)cs1 | 0.052 nM | 0.047 nM | 0.125 nM |  |  |
| COc1cccc2c1C(=O)c1c(O)c3c(c(O)c1C2=O)C[C@@](O)(c1cnc(C)[nH]1)C[C@@H]3O[C@H]1C[C@H]2[C@H](O[C@@H]3[C@@H](OC)OCCN32)[C@H](C)O1 | 0.024 nM | 0.0017 nM | > 0.3 nM |  |  |
| COc1cccc2c1C(=O)c1c(O)c3c(c(O)c1C2=O)C[C@@](O)(c1csc(N)n1)C[C@@H]3O[C@H]1C[C@H]2[C@H](O[C@@H]3[C@@H](OC)OCCN32)[C@H](C)O1 | 0.051 nM | 0.046 nM | 0.139 nM |  |  |
| COc1cccc2c1C(=O)c1c(O)c3c(c(O)c1C2=O)C[C@@](O)(c1csc(C)n1)C[C@@H]3O[C@H]1C[C@H]2[C@H](O[C@@H]3[C@@H](OC)OCCN32)[C@H](C)O1 | 0.012 nM | 0.0116 nM | 0.0101 nM |  |  |
| COc1cccc2c1C(=O)c1c(O)c3c(c(O)c1C2=O)C[C@@]1(C[C@@H]3O[C@H]2C[C@H]3[C@H](O[C@@H]4[C@@H](OC)OCCN43)[C@H](C)O2)OC(=O)OCC1=O | 0.00069 nM | 0.0005 nM | 0.0009 nM |  |  |
